The nature of one data set: physchem. It is filed as physicochemical. Particulars: 25 °C, water. The source says: In UK Patent Specification 2130204 we describe certain purine derivatives which are characterised by the presence of a hydrogen atom in the 6- position of the purine nucleus, and which can be readily converted in vivo by the action of enzymes of the molybdo-flavo-protein type (especially xanthine oxidase/dehydrogenase or aldehyde oxidase) into the corresponding 6-hydroxy purine derivatives having antiviral activity. […] This improved water-solubility enables 6-deoxyacyclovir to be used in a greater variety of aqueous pharmaceutical formulations which require some solubilisation of the drug.

For data set [1], the target named is T1, xanthine oxidase from bovine milk (Bos taurus, UniProt P80457).
T1 construct: xanthine oxidase from bovine milk; from tissue; host or cells: bovine milk
Nature of the data set: oxidation by xanthine oxidase (enzyme studies). It is filed as biochemical. Particulars: compared with the 9-unsubstituted purine (2-aminopurine). The source says: The discovery that the 6-hydrogen purines of formula (IA) referred to above can be readily converted into their corresponding 6-hydroxy analogues was surprising since in previous studies with xanthine oxidase from bovine milk (H.Lettre et al (1967) Biochem.Pharmacol., 16, 1747-1755; T.A. Krenitsky et al (1972) Arch. Biophys., 150, 585-599), it was shown that 9- substitution obliterates or greatly diminishes the rate at which a variety of purines are oxidised.

The text below walks through data of patent publication EP0158513A2, “Antiviral compounds” (THE WELLCOME FOUNDATION LIMITED, priority 1984, dated 1985).

In brackets after ≈: the same amount, converted by molar mass.

T1 sequence (P80457 whole entry): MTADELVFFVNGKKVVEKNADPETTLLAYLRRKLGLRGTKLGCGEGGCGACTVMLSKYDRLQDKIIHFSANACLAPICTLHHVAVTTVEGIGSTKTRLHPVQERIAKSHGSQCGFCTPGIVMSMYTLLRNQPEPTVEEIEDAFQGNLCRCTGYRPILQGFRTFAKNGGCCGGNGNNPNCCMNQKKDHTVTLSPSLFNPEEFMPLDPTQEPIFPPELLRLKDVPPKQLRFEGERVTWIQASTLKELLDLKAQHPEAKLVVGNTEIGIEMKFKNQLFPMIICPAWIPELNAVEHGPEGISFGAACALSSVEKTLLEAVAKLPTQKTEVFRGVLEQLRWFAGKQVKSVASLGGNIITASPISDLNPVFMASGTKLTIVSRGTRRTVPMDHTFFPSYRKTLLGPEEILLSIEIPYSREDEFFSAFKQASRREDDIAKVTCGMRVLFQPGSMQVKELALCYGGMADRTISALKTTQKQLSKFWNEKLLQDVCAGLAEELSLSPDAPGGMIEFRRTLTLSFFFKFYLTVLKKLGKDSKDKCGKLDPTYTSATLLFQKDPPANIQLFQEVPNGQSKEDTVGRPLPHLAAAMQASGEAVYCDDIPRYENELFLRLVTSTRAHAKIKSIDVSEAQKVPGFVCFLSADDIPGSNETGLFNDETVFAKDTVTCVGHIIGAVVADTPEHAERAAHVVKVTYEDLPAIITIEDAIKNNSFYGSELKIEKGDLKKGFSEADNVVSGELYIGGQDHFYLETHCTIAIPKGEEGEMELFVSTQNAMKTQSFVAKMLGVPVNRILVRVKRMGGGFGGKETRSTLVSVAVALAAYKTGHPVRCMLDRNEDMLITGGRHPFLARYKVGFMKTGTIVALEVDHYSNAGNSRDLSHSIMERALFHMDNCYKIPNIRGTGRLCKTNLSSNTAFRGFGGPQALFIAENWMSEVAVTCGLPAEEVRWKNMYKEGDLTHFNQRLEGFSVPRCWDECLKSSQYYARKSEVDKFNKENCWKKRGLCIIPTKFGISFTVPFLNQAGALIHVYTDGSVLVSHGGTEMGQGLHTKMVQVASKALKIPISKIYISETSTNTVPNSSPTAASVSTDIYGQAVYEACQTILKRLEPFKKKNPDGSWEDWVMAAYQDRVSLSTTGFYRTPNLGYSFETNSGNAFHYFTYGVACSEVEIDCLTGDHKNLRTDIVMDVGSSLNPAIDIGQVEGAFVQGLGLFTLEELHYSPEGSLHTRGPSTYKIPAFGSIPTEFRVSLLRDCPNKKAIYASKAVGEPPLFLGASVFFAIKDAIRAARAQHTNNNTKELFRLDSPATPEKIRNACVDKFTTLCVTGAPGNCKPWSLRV

With `Nc1ncc2ncn(COCCO)c2n1` [6-deoxyacyclovir, 2-amino-9-(2-hydroxyethoxymethyl)purine], the solubility in the data set “physchem” was 50 mg/mL (≈ 239 mM). In addition, the “rate of oxidation by the enzyme” value in data set [1] was “at a faster rate than the 9-unsubstituted purine”. Regarding `Nc1nc2c(ncn2COCCO)c(=O)[nH]1` [acyclovir, 9-(2-hydroxyethoxymethyl)guanine], in “physchem”, the solubility was 1.23 mg/mL (≈ 5.46 mM).

As a reminder, the solubility is how much of the substance goes into solution per volume. High values mean much dissolved substance, low ones little dissolved substance.
